Read-outs that look alike come from different tables or passages of the source.
Columns and labels:
[1] = Cell viability (neutral red) on the replicon system; assay type: cell-based; conditions: human, Huh7 cells harbouring the subgenomic HCV replicon BM4-5, neutral red test, drug renewed daily for three days, read-out: CC50, cytotoxicity on Replicon System
Experimental: (§1) Antiviral and Cytotoxicity assays for HCV. Huh7 cells harbouring the subgenomic HCV replicon BM4-5 (J. T. Guo et al., J. Virol. 2001, 75: 8516-8523) were used in this study. Cells were maintained in Dulbecco's modified Eagle's medium high glucose 4.5 g/l (LifeTechnlogies) supplemented with 10% fetal bovine serum, 1% L-glutamine, 1% penicillin and streptomycin, 1% L-Pyruvate and 500 μg/ml of geneticien (G418, Invitrogen). Geneticin was used to select cells permitting the HCV RNA replication. Cells were passaged every four days with a 1:4 ratio.
(§2) For cell viability assays, cells were seeded in 96-well plates at a density of 12,500 cells per well. They were treated by the different molecules with the same concentrations and conditions than those used for the antiviral assays. Then, cell viability was measured by neutral red assay. Neutral red specifically colors lysosomes and its accumulation depends on cellular membrane integrity. The yield of neutral red incorporated in cells is proportional to the number of living cells. At the end of treatment, culture medium was removed; cells were washed by PBS, then coloured with neutral red at 0.005% for 3 hours at 37° C. Cells were then fixed 1 minute by formol calcium and lysed by atreatment with a vol/vol mixture of acetic acid and ethanol. After 15 minutes incubation, absorbance was read at 490 nm.

[2] = Cytotoxicity against CEM cells; assay type: cell-based; conditions: human
[3] = Cytotoxicity against VERO cells; assay type: cell-based; conditions: African green monkey
[4] = system: BVDV strain NADL; assay: Antiviral assay on BVDV, inhibition of cytopathic effect in MDBK cells; assay type: cell-based; conditions: Bovine viral diarrhea virus isolates and strains, read-out: EC50 ECP inhibition (3rd day p.i.)
Experimental: (§3) Antiviral and cytotoxicity assays for BVDV. Noncytopathic-BVDV-free MDBK cells (European Collection of Animal Cell Cultures, Porton Down, U.K.) were kindly provided by Dr N. Zitzmann (Oxford University). Cells were propagated in DMEM F12 (Eurobio) supplemented with 10% horse serum (Life Technologies), 1% L-glutamin (Gibco), 1% penicillin ansd streptomycin (Gibco).
MDBK cells were seeded in microwell plates (96 wells) at a density of 1.10^5 cells per well, then infected with BVDV (strain NADL) (at dilution inducing 100%/o cytopathic effect three days post inoculation, i.e approximately 10 plaque forming units (pfu) per well at three days post infection) for one hour, at 37° C. After a wash with DMEM, infected cells were incubated for three days in the presence of absence of drug; each concentration of drug was added in 12 consecutive wells. The appearance of CPE was visually checked the third day post inoculation to evaluate the IC50 on BVDV (strain NADL), according to the different conditions of treatment.

[5] = Cytotoxicity against PBM cells; assay type: cell-based; conditions: human
[6] = Cytotoxicity on uninfected MDBK cells (neutral red); assay type: cell-based; conditions: cattle (bovine)
Experimental: as §2
as §3, with “(Gibco). The NADL cytopathic (CP) BVDV strain was obtained from ATCC: VR-504.” for “(Gibco).”
Uninfected MDBK cells were grown in the absence or presence of varying concentrations of drug tested. After 3 days, toxicity was evaluated by neutral red coloration as described above.

[7] = system: subgenomic HCV replicon BM4-5 in Huh7 cells; assay: Antiviral assay on HCV subgenomic replicon, Northern blot of (+)-strand HCV RNA; assay type: cell-based, Hepatitis C Virus; conditions: for IC50: read-out: IC50, anti-HCV activity, (+)-RNA; for IC90: read-out: IC90, anti-HCV activity, (+)-RNA; for Selectivity Index (SI), ratio between CC50 and IC50: replicon system
Experimental: as §1
Cells were seeded in 6-wells plates at a density of 2.5×10^5 cells per well, sixteen hours before the beginning of treatment. […] The administration of each drug was renewed every day for three consecutive days. Ribarivin (ICN Pharmaceuticals), mycophenolic acid (MPA, Sigma), and interferon alpha-2b (IntronA®)) were used in the same conditions as positive controls. The concentrations used for these drugs were respectively: 0; 0.5; 1; 2; 4; 8; 16; 32; 64; 128; 256 and 512 μM for ribavirin, 0; 2.5; 5; 10; 20; 40 μM for mycophenolic acid, and 0; 0.1; 1; 10; 100 and 1000 Ul/mL for IFN alpha-2b. Total RNA was extracted at the end of treatment (24 hours after the last day of treatment) with the <<Extract all>> reagent (Eurobio), which is a mix of phenol and guanidium thiocyanate. Northern blot analysis was then performed using the NorthernMax™-Gly kit (Ambion), following manufacturer's instructions. Five micrograms of total RNA were denaturated in glyoxal buffer at 50° C. for 30 minutes, separated by 1.1% agarose gel electrophoresis, and then transferred for 12 hours onto a charged nylon membrane (HybondN+, Amersham). Hybridization was carried out with three different [^32P]CTP-labelled riboprobes obtained by in vitro transcription (Riboprobe in vitro transcription system, Promega). Two probes were complementary to the NS5A region of the HCV genome of negative polarity and positive polarity. A third probe was complementary to the beta-actin mRNA and obtained by in vitro transcription from a specific plasmid (PTRI beta actin human, reference 7424, Ambion). First, the blot was hybridized with the riboprobes directed against the negative strand of HCV RNA and beta-actin mRNA, respectively. After one night of hybridization at 68° C., the membrane was washed, then exposed to X-ray film and a phosphor screen (phosphorimager). This screen was then scanned and quantitative analysis was achieved using ImageQuant software. The amount of beta-actin mRNA was used as an internal loading control to standardize the amount of HCV RNA detected. The same membrane was subsequently hybridized with the […] to determine the level of positive strand HCV RNA, suing the same approach.

[8] = system: Huh7 cells harbouring the subgenomic HCV replicon BM4-5; assay: Cell viability (neutral red) on the replicon system; assay type: cell-based; conditions: neutral red test, drug renewed daily for three days, read-out: CC50, cytotoxicity on Replicon System
Experimental: as §1, §2

[9] = system: CEM cells; assay: Cytotoxicity against CEM cells; assay type: cell-based
[10] = system: VERO cells; assay: Cytotoxicity against VERO cells; assay type: cell-based
[11] = system: PBM cells; assay: Cytotoxicity against PBM cells; assay type: cell-based
[12] = Hepatitis C virus, 72 h, Huh7 BM4-5 replicon, positive strand HCV RNA by Northern blot, three days treatment
[13] = Huh7 BM4-5 replicon, positive strand HCV RNA by Northern blot, three days treatment

Compound	CC50 at 3 days [1] [µM]	CC50 [2] [µM]	CC50 [3] [µM]	EC50 [4] [µM]	CC50 [5] [µM]	CC50 at 3 days [6] [µM]	IC50 [7, 12] [µM]	IC90 [7, 12] [µM]	Selectivity Index (SI), ratio between CC50 and IC50 [7]	CC50 [8] [µM]	CC50 [9] [µM]	CC50 [10] [µM]	CC50 [11] [µM]	IC50 [7, 13] [µM]	IC90 [7, 13] [µM]	IC50 ([7]; Hepatitis C virus, 72 h) [µM]
O=c1[nH]c(=O)n([C@@H]2O[C@H](CO)[C@@H](O)[C@H]2O)cc1C#CBr [Compound 13b, 5-(2-bromoethynyl)-uridine]	188	> 100	> 100	> 100	> 100	> 100	58	> 200	3.2	–	–	–	–	–	–	–
O=c1[nH]c(=O)n([C@@H]2O[C@H](CO)C[C@H]2O)cc1/C(Br)=C\I [Compound 15c, (E)-5-(1-Bromo-2-iodovinyl)-3′-deoxyuridine]	> 200	79.3	> 100	> 100	71.5	> 100	> 200	> 200	≦1	–	–	–	–	–	–	–
O=c1[nH]c(=O)n([C@@H]2O[C@H](CO)[C@@H](O)[C@H]2O)cc1/C(Cl)=C\I [Compound 16b, (E)-5-(l-Chloro-2-iodovinyl)-uridine]	–	–	–	–	–	–	–	–	–	> 200	> 100	> 100	> 100	74.9	> 250	–
NC(=O)c1ncn([C@@H]2O[C@H](CO)[C@@H](O)[C@H]2O)n1 [Ribavirin, 1-β-D-ribofuranosyl-1,2,4-triazole-3-carboxamide, reference compound]	110	–	–	36	–	> 100	–	> 512	<1	–	–	–	–	–	–	170

— patent US20090004137A1, “Uridine Derivatives as Antiviral Drugs Against a Flaviviridae, Especially Hcv” (priority 2004, published 2009)
